Experiment [1] addresses human ACC2 (Homo sapiens, UniProt O00763). Briefly: Acetyl CoA carboxylase (ACC) activity inhibition test, human ACC2. Type of experiment: biochemical. The settings on record: 1 μmol/liter compound; control: DMSO well without test compound; read-out: Inhibition (%) by 1 μmol/liter Chemical, human ACC2. Here is the method:
(§1) A. Pharmacological Test Example (Acetyl CoA Carboxylase (ACC) Activity Inhibition Test)
(§2) Concretely, 0.8 μl of the diluted test compound is added to each well of 96-well assay plate (Perkin Elmer Opti Plate), then 40 μl of a substrate solution (50 mM Hepes sodium (pH 7.5), 2 mM DTT, 10 mM ATP, 500 μM acetyl CoA, 0.17 mM NaH[^14C]O3 (58 mCi/mmol, by Amersham), 8 mM NaHCO3) is added to each well, and 40 μL of an enzyme solution (1 to 2 nM human ACC1 or human ACC2, 50 mM Hepes sodium (pH 7.5), 2 mM DTT, 40 mM MgCl2, 40 mM tripotassium citrate 1 mg/ml fetal bovine serum albumin) is added thereto. Then, the upper side of the plate is sealed up, and the plate is incubated with gently stirring at 37° C. for 40 minutes. Next, 20 μl of 1N HCl is added to each well to stop the enzyme reaction, and the assay plate is stirred overnight to remove the unreacted NaH[^14C]O3. Next, 100 μl of a scintillator (Perkin Elmer's Microscinti 40) is added to each well and the plate is stirred, then the radioactivity of the fixed [^14C] is counted using a microplate scintillation counter (Perlin Elmer's Topcount), the radioactivity of which represents the enzyme activity in each well. The human ACC1 and human ACC2 enzyme-inhibition activities of the test compounds are calculated, based on the radioactivity of the well added by DMSO without test compound as a control.

For experiment [2], the target named is human ACC1 (Homo sapiens, UniProt Q13085). Put plainly: Acetyl CoA carboxylase (ACC) activity inhibition test, human ACC1. Particulars: 1 μmol/liter compound; control: DMSO well without test compound; read-out: Inhibition (%) by 1 μmol/liter Chemical, human ACC1. Type of experiment: biochemical. Here is the method:
as §1, §2

Experimental findings from patent US7410976B2, “Spirochromanone derivatives” (Merck & Co., Inc., priority 2005, dated 2008) are described below.

Structures can show the parent of a compound that is named as a salt.

human ACC2, sequence (O00763 whole entry): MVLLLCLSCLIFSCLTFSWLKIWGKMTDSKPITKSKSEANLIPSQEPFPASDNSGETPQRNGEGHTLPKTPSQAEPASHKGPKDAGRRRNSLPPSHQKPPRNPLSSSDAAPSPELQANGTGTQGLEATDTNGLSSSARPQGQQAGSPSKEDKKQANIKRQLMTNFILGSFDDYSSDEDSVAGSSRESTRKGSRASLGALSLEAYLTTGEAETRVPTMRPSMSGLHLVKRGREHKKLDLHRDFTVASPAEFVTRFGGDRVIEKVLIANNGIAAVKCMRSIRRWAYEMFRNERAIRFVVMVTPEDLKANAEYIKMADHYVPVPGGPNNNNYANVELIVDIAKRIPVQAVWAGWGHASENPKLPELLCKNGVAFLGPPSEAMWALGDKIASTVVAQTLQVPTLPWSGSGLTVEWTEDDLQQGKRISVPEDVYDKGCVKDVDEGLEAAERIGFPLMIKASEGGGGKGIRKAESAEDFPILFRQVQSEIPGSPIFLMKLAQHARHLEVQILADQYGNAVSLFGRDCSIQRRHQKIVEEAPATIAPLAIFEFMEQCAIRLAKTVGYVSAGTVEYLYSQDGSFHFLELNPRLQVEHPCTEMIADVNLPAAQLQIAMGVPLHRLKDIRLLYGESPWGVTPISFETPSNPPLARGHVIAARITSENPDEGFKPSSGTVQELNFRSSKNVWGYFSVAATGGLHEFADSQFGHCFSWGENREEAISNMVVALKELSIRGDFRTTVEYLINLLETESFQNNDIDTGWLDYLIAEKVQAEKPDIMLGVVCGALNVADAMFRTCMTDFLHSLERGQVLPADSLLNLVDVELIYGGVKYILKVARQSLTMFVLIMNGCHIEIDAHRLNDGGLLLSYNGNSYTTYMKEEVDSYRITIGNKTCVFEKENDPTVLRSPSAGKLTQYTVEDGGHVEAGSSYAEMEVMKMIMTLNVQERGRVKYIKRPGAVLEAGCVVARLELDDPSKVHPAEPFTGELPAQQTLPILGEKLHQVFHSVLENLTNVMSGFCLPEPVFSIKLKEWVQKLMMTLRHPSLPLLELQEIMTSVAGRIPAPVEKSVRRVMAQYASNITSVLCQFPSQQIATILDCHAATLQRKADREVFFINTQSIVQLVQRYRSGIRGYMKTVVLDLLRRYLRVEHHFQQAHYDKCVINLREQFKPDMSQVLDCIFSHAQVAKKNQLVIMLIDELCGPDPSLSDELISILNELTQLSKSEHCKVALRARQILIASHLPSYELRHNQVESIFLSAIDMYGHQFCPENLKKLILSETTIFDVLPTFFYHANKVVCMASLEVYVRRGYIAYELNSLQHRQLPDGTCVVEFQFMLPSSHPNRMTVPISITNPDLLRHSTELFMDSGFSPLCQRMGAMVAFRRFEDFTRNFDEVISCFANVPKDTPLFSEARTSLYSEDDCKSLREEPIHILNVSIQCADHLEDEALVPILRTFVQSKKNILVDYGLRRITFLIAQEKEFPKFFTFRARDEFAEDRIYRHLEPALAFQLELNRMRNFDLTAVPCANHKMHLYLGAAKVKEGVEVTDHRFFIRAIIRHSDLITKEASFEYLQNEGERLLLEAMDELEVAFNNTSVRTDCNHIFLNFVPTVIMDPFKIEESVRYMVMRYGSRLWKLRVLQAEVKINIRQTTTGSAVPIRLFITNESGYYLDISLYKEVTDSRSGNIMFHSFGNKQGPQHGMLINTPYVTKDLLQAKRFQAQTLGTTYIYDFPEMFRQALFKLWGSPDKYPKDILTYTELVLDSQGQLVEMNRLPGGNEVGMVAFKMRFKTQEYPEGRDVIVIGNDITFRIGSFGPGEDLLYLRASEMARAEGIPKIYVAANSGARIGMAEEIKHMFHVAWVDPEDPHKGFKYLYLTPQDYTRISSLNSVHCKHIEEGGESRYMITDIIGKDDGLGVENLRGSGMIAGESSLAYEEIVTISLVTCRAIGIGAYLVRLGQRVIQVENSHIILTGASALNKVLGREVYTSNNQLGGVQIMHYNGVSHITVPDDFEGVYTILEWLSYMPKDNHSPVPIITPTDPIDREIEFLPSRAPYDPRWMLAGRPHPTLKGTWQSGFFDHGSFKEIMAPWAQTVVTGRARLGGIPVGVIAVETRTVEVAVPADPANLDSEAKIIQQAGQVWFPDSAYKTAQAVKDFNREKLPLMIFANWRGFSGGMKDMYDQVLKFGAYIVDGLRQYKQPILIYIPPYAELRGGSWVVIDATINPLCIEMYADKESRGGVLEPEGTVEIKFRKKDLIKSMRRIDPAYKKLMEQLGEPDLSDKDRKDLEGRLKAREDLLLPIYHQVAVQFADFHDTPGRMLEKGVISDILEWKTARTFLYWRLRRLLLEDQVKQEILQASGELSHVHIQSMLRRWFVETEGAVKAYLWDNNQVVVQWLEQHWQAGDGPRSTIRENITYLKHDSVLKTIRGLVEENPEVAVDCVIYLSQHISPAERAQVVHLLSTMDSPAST

Consider `COc1cc(C(=O)N2CCC3(CC2)CC(=O)c2cc(NC(C)=O)ccc2O3)nc2ccccc12` [Example 2, N-{1′-[(4-methoxyquinolin-2-yl)carbonyl]-4-oxospiro[chroman-2,4′-piperidin]-6-yl}acetamide hydrochloride], for which the inhibition at 1 µM turned out to be 85% in experiment [1] and 82% in experiment [2].

For `COc1cc(C(=O)N2CCC3(CC2)CC(=O)c2cc(NC(C)=O)ccc2O3)nc2c(OC)cccc12` [Example 3, N-{1′-[(4,8-dimethoxyquinolin-2-yl)carbonyl]-4-oxospiro[chroman-2,4′-piperidin]-6-yl}acetamide], the inhibition at 1 µM in experiment [1] was 98%; in experiment [2], 100%.

With `COc1cc(C(=O)N2CCC3(CC2)CC(=O)c2ccccc2O3)nc2c(OC)cccc12` [Example 4, 1′-[(4,8-dimethoxyquinolin-2-yl)carbonyl]spiro[chroman-2,4′-piperidin]-4-one], the inhibition at 1 µM in experiment [1] was 96%; in experiment [2], 93%.

Take `COc1cc(C(=O)N2CCC3(CC2)CC(=O)c2cc(N)ccc2O3)nc2c(OC)cccc12` [Example 5, 6-amino-1′-[(4,8-dimethoxyquinolin-2-yl)carbonyl]spiro[chroman-2,4′-piperidin]-4-one]: the inhibition at 1 µM in experiment [1] and in experiment [2] was 97% each time.

Turning to `COc1cc(C(=O)N2CCC3(CC2)CC(=O)c2cc(Nc4ccnn4C)ccc2O3)nc2c(OC)cccc12` [Example 10, 1′-[(4,8-dimethoxyquinolin-2-yl)carbonyl]-6-[(1-methyl-1H-pyrazol-5-yl)amino]spiro[chroman-2,4′-piperidin]-4-one], the inhibition at 1 µM in experiment [1] was 99%; in experiment [2], 100%.

Consider `COc1cc(C(=O)N2CCC3(CC2)CC(=O)c2cc(-c4nnn[nH]4)ccc2O3)nc2c(OC)cccc12` [Example 18, 1′-[(4,8-dimethoxyquinolin-2-yl)carbonyl]-6-(1H-tetrazol-5-yl)spiro[chroman-2,4′-piperidin]-4-one sodium salt], for which the inhibition at 1 µM is 99% in experiment [1] and 97% in experiment [2].

With `CCOc1cc(C(=O)N2CCC3(CC2)CC(=O)c2cc(-c4nnn[nH]4)ccc2O3)nc2c(C3CC3)nccc12` [Example 21, 1′-[(8-cyclopropyl-4-ethoxy-1.7-naphthyridin-2-yl)carbonyl]-6-(1H-tetrazol-5-yl)spiro[chroman-2,4′-piperidin]-4-one], the inhibition at 1 µM stood at 97% in experiment [1] and 99% in experiment [2].

For the molecule `COc1cc(C(=O)N2CCC3(CC2)CC(=O)c2cc(-c4nc[nH]n4)ccc2O3)nc2c(OC)cccc12` [Example 27, 1′-[(4,8-dimethoxyquinolin-2-yl)carbonyl]-6-(1H-1,2,4-triazol-3-yl)-spiro[chroman-2,4′-piperidin]-4-one], the inhibition at 1 µM is 100% in experiment [1] and 101% in experiment [2].
